# Data as given in ChEMBL document CHEMBL5325411, “Design, synthesis and biological evaluation of novel phenylfuran-bisamide derivatives as P-glycoprotein inhibitors against multidrug resistance in MCF-7/ADR cell” (Eur J Med Chem, 2023).
# The source made the active and inactive calls. The calls are words filed in the database; no cut-off is given here.
# Experiments:
# NCI/ADR-RES [1] = experiment: Cytotoxicity against DOX-resistant human MCF7/ADR cells assessed as reversal fold of resistance by measuring ratio of doxorubicin IC50 alone to doxorubicin IC50 in presence of test compound incubated for 48 hrs by CCK8 assay; assay type: functional
# NCI/ADR-RES [2] = experiment: Cytotoxicity against DOX-resistant human MCF7/ADR cells assessed as cell growth inhibition at 5 uM incubated for 48 hrs by CCK8 assay relative to control; assay type: functional
# MCF7 = experiment: Cytotoxicity against human MCF7 cells assessed as cell growth inhibition at 5 uM incubated for 48 hrs by CCK8 assay relative to control; assay type: functional
# NCI/ADR-RES [3] = experiment: Downregulation of P-gp expression in DOX-resistant human MCF7/ADR cells at 0.5 to 5 uM incubated for 48 hrs by Western blot analysis; assay type: functional, cell-based; settings: dose 0.5-5 µM
# [4] = target: ATP-dependent translocase ABCB1 (Homo sapiens, UniProt P08183); experiment: Inhibition of P-gp in DOX-resistant human MCF7/ADR cells assessed as increase in intracellular Rh123 accumulation incubated for 4 hrs by flow cytometry; assay type: cell-based; settings: mcf7adr, at 2.5 to 5 µM, dose 2.5-5 µM
# ATP-dependent translocase ABCB1, sequence (P08183 whole entry): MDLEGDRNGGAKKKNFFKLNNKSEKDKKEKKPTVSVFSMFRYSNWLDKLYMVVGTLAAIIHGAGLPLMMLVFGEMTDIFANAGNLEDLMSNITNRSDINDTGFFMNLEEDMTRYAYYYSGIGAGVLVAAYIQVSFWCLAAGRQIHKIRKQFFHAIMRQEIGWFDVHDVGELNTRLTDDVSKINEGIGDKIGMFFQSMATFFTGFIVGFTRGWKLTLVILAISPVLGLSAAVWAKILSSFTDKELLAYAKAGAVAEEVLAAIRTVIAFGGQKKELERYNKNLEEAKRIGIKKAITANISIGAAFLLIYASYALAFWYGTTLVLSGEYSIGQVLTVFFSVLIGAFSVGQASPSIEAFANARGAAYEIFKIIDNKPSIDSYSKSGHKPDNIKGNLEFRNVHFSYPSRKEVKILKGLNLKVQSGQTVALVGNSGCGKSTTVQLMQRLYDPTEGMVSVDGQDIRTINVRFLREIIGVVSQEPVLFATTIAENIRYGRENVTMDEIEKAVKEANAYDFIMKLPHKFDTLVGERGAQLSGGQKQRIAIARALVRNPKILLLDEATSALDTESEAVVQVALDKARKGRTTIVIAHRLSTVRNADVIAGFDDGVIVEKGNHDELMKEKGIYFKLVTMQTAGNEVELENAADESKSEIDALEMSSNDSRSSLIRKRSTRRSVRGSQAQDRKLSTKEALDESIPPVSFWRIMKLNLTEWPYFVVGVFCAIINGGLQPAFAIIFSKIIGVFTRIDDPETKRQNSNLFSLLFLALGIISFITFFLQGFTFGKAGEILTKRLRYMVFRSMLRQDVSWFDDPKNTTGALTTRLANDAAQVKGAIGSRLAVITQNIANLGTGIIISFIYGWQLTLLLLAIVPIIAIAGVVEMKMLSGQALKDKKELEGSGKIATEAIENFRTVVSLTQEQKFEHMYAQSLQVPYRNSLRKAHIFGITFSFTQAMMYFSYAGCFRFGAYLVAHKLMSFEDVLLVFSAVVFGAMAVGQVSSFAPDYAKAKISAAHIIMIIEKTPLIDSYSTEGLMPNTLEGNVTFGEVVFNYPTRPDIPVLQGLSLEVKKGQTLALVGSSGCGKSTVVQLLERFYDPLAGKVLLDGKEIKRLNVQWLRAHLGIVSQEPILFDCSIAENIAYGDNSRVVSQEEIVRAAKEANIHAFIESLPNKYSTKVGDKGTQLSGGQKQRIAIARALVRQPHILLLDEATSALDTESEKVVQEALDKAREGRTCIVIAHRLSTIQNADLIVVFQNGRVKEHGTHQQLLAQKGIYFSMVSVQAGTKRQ
smiles,measurement,setting,value
C/C=C/C(=O)Nc1ccc(-c2ccc(C(=O)N3CCc4cc(OC)c(OC)cc4C3)o2)cc1,Ratio IC50,NCI/ADR-RES [1],130.1
same,inhibition at 5 µM,NCI/ADR-RES [2],8.8%
same,inhibition at 5 µM,MCF7,1.7%
COc1cc2c(cc1OC)CN(C(=O)c1ccc(-c3ccc(NC(=O)c4cc5ccc(Br)cc5[nH]4)cc3)o1)CC2,Ratio IC50,NCI/ADR-RES [1],497.5
same,inhibition at 5 µM,NCI/ADR-RES [2],14.7%
same,inhibition at 5 µM,MCF7,7.4%
COc1cccc2c1C(=O)c1c(O)c3c(c(O)c1C2=O)C[C@@](O)(C(=O)CO)C[C@@H]3O[C@H]1C[C@H](N)[C@H](O)[C@H](C)O1 [DOXORUBICIN],Ratio IC50,NCI/ADR-RES [1],1
COc1cc2c(cc1OC)CN(C(=O)c1ccc(-c3ccc(NC(=O)c4cc5cc([N+](=O)[O-])ccc5[nH]4)cc3)o1)CC2,Ratio IC50,NCI/ADR-RES [1],189.9
same,inhibition at 5 µM,NCI/ADR-RES [2],5.7%
same,inhibition at 5 µM,MCF7,5.1%
C/C=C/C[C@@H](C)[C@@H](O)[C@H]1C(=O)N[C@@H](CC)C(=O)N(C)CC(=O)N(C)[C@@H](CC(C)C)C(=O)N[C@@H](C(C)C)C(=O)N(C)[C@@H](CC(C)C)C(=O)N[C@@H](C)C(=O)N[C@H](C)C(=O)N(C)[C@@H](CC(C)C)C(=O)N(C)[C@@H](CC(C)C)C(=O)N(C)[C@@H](C(C)C)C(=O)N1C [CYCLOSPORINE],inhibition at 5 µM,NCI/ADR-RES [2],24.5%
COc1cc2c(cc1OC)CN(C(=O)c1ccc(-c3ccc(NC(C)=O)cc3)o1)CC2,Ratio IC50,NCI/ADR-RES [1],18.6
same,inhibition at 5 µM,NCI/ADR-RES [2],10.1%
same,inhibition at 5 µM,MCF7,11%
COc1cc2c(cc1OC)CN(C(=O)c1ccc(-c3ccc(NC(=O)c4c[nH]c5ccccc45)cc3)o1)CC2,Ratio IC50,NCI/ADR-RES [1],347
same,inhibition at 5 µM,NCI/ADR-RES [2],18.2%
same,inhibition at 5 µM,MCF7,16.1%
COc1cc2c(cc1OC)CN(C(=O)c1ccc(-c3ccc(NC(=O)c4cc5ccccc5o4)cc3)o1)CC2,inhibition at 5 µM,NCI/ADR-RES [2],63.7%
same,inhibition at 5 µM,MCF7,44.5%
COc1ccc2[nH]c(C(=O)Nc3ccc(-c4ccc(C(=O)N5CCc6cc(OC)c(OC)cc6C5)o4)cc3)cc2c1,Ratio IC50,NCI/ADR-RES [1],214.4
same,inhibition at 5 µM,NCI/ADR-RES [2],16.1%
same,inhibition at 5 µM,MCF7,19.5%
COc1cc2c(cc1OC)CN(C(=O)c1ccc(-c3ccc(NC(=O)c4cccc5[nH]ccc45)cc3)o1)CC2,Ratio IC50,NCI/ADR-RES [1],220
same,inhibition at 5 µM,NCI/ADR-RES [2],9.2%
same,inhibition at 5 µM,MCF7,7.6%
COc1cc2c(cc1OC)CN(C(=O)c1ccc(-c3ccc(NC(=O)/C=C/c4ccccc4)cc3)o1)CC2,Ratio IC50,NCI/ADR-RES [1],277.7
same,inhibition at 5 µM,NCI/ADR-RES [2],14.6%
same,inhibition at 5 µM,MCF7,14.5%
COc1cc2c(cc1OC)CN(C(=O)c1ccc(-c3ccc(NC(=O)C(C)(C)C)cc3)o1)CC2,Ratio IC50,NCI/ADR-RES [1],78.4
same,inhibition at 5 µM,NCI/ADR-RES [2],23.3%
same,inhibition at 5 µM,MCF7,12.9%
COc1cc2c(cc1OC)CN(C(=O)c1ccc(-c3ccc(NC(=O)c4cc5c(F)cc(F)cc5[nH]4)cc3)o1)CC2,Ratio IC50,NCI/ADR-RES [1],600.2
same,inhibition at 5 µM,NCI/ADR-RES [2],14.7%
same,inhibition at 5 µM,MCF7,9.1%
COc1cc2c(cc1OC)CN(C(=O)c1ccc(-c3ccc(NC(=O)c4cc5cc(F)ccc5[nH]4)cc3)o1)CC2,Activity,NCI/ADR-RES [3],inactive
same,Ratio IC50,NCI/ADR-RES [1],1163
same,inhibition (INH),[4],Dose-Dependent Effect
same,inhibition at 5 µM,NCI/ADR-RES [2],19.8%
same,inhibition at 5 µM,MCF7,12%
COc1cc2c(cc1OC)CN(C(=O)c1ccc(-c3ccc(NC(=O)c4cc5ccccc5[nH]4)cc3)o1)CC2,Ratio IC50,NCI/ADR-RES [1],540.5
same,inhibition at 5 µM,NCI/ADR-RES [2],15.1%
same,inhibition at 5 µM,MCF7,13.3%
COc1cc2c(cc1OC)CN(C(=O)c1ccc(-c3ccc(NC(=O)Cc4cccc5ccccc45)cc3)o1)CC2,Ratio IC50,NCI/ADR-RES [1],168.8
same,inhibition at 5 µM,NCI/ADR-RES [2],26.3%
COc1cc2c(cc1OC)CN(C(=O)c1ccc(-c3ccc(NC(=O)C(C)C)cc3)o1)CC2,Ratio IC50,NCI/ADR-RES [1],46.5
same,inhibition at 5 µM,NCI/ADR-RES [2],18.4%
same,inhibition at 5 µM,MCF7,19.1%
CCCCC(=O)Nc1ccc(-c2ccc(C(=O)N3CCc4cc(OC)c(OC)cc4C3)o2)cc1,Ratio IC50,NCI/ADR-RES [1],15.7
same,inhibition at 5 µM,NCI/ADR-RES [2],13.1%
same,inhibition at 5 µM,MCF7,17.6%
COc1cc2c(cc1OC)CN(C(=O)c1ccc(-c3ccc(NC(=O)C4CC4)cc3)o1)CC2,Ratio IC50,NCI/ADR-RES [1],57.2
same,inhibition at 5 µM,NCI/ADR-RES [2],10.9%
same,inhibition at 5 µM,MCF7,12.2%
COc1cc2c(cc1OC)CN(C(=O)c1ccc(-c3ccc(NC(=O)c4csc5ccccc45)cc3)o1)CC2,inhibition at 5 µM,NCI/ADR-RES [2],41.9%
same,inhibition at 5 µM,MCF7,37.3%
CCC(=O)Nc1ccc(-c2ccc(C(=O)N3CCc4cc(OC)c(OC)cc4C3)o2)cc1,Ratio IC50,NCI/ADR-RES [1],33.3
same,inhibition at 5 µM,NCI/ADR-RES [2],23.2%
same,inhibition at 5 µM,MCF7,17.2%
COc1cc2c(cc1OC)CN(C(=O)c1ccc(-c3ccc(NC(=O)c4cc5ccccc5s4)cc3)o1)CC2,inhibition at 5 µM,NCI/ADR-RES [2],46.8%
same,inhibition at 5 µM,MCF7,48.8%
COc1cc2c(cc1OC)CN(C(=O)c1ccc(-c3ccc(NC(=O)c4cc5cc(C)ccc5[nH]4)cc3)o1)CC2,Ratio IC50,NCI/ADR-RES [1],116.9
same,inhibition at 5 µM,NCI/ADR-RES [2],10.1%
same,inhibition at 5 µM,MCF7,8.1%
COc1cc2c(cc1OC)CN(C(=O)c1ccc(-c3ccc(NC(=O)CC(C)(C)C)cc3)o1)CC2,Ratio IC50,NCI/ADR-RES [1],52
same,inhibition at 5 µM,NCI/ADR-RES [2],12.6%
same,inhibition at 5 µM,MCF7,18.5%
COc1ccc(-c2ccc(C(=O)N3CCc4cc(OC)c(OC)cc4C3)o2)cc1,Ratio IC50,NCI/ADR-RES [1],39.4
same,inhibition at 5 µM,NCI/ADR-RES [2],25.7%
same,inhibition at 5 µM,MCF7,11.2%
COc1cc2c(cc1OC)CN(C(=O)c1ccc(-c3ccc(NC(=O)c4cc5cc(Cl)ccc5[nH]4)cc3)o1)CC2,Ratio IC50,NCI/ADR-RES [1],613.3
same,inhibition at 5 µM,NCI/ADR-RES [2],14.4%
same,inhibition at 5 µM,MCF7,15.8%
COc1cc2c(cc1OC)CN(C(=O)c1ccc(-c3ccc(NC(=O)c4ccc5ccccc5c4)cc3)o1)CC2,Ratio IC50,NCI/ADR-RES [1],451.1
same,inhibition at 5 µM,NCI/ADR-RES [2],23.8%
same,inhibition at 5 µM,MCF7,29.5%
COc1cc2c(cc1OC)CN(C(=O)c1ccc(-c3ccc(NC(=O)c4cc5ccc(F)cc5[nH]4)cc3)o1)CC2,Ratio IC50,NCI/ADR-RES [1],566.4
same,inhibition at 5 µM,NCI/ADR-RES [2],16.9%
same,inhibition at 5 µM,MCF7,28.1%
COc1ccc2cc(C(=O)Nc3ccc(-c4ccc(C(=O)N5CCc6cc(OC)c(OC)cc6C5)o4)cc3)[nH]c2c1,Ratio IC50,NCI/ADR-RES [1],437.1
same,inhibition at 5 µM,NCI/ADR-RES [2],12.4%
same,inhibition at 5 µM,MCF7,7.3%
COc1cc2c(cc1OC)CN(C(=O)c1ccc(-c3ccc(NC(=O)c4cc5cc(Br)ccc5[nH]4)cc3)o1)CC2,Ratio IC50,NCI/ADR-RES [1],5473
same,inhibition at 5 µM,NCI/ADR-RES [2],19.5%
same,inhibition at 5 µM,MCF7,26.8%
COc1cc2c(cc1OC)CN(C(=O)c1ccc(-c3ccc(NC(=O)c4cc5c(C)cccc5[nH]4)cc3)o1)CC2,Ratio IC50,NCI/ADR-RES [1],88.3
same,inhibition at 5 µM,NCI/ADR-RES [2],15.1%
same,inhibition at 5 µM,MCF7,16.6%
COc1cc2c(cc1OC)CN(C(=O)c1ccc(-c3ccc(NC(=O)C4CCCC4)cc3)o1)CC2,Ratio IC50,NCI/ADR-RES [1],18.6
same,inhibition at 5 µM,NCI/ADR-RES [2],19.8%
same,inhibition at 5 µM,MCF7,15.7%
COc1cc2c(cc1OC)CN(CCc1ccc(NC(=O)c3cc(OC)c(OC)cc3NC(=O)c3cnc4ccccc4c3)cc1)CC2,Ratio IC50,NCI/ADR-RES [1],319.3
same,inhibition at 5 µM,MCF7,21.3%
COc1cc2c(cc1OC)CN(C(=O)c1ccc(-c3ccc(NC(=O)c4cccc5ccccc45)cc3)o1)CC2,Ratio IC50,NCI/ADR-RES [1],201.7
same,inhibition at 5 µM,NCI/ADR-RES [2],28.4%
same,inhibition at 5 µM,MCF7,34.8%
COc1cc2c(cc1OC)CN(C(=O)c1ccc(-c3ccc(NC(=O)C4CCC4)cc3)o1)CC2,Ratio IC50,NCI/ADR-RES [1],82.1
same,inhibition at 5 µM,MCF7,15.3%
COc1ccc(CCN(C)CCCC(C#N)(c2ccc(OC)c(OC)c2)C(C)C)cc1OC (stereo not drawn),inhibition at 5 µM,NCI/ADR-RES [2],12.2%
